pIC50: −log10 of the molar value. Like-named read-outs stand apart in the source and are kept apart here. Starred links: 1 amine or outer side, 2 acyl side, 3 side chain; linkers in the order of their positions; H or OH if unused. Positions of bridges follow the written chain, without caps; N, C: chain ends. Non-standard residues stand in square brackets, D forms with d. Residues, ends and D or L forms follow the SMILES beside them. *: point of attachment. Bip(4'-(3-HOOC-benzamido)) = N[C@@H](Cc1ccc(-c2ccc(NC(=O)c3cccc(C(=O)O)c3)cc2)cc1)C(=O)O; dArg(Nω-CH2C6H4-3-CH2Gua) = N=C(N)NCc1cccc(CNC(=N)NCCC[C@@H](N)C(=O)O)c1; Bip(4'-NHBz) = N[C@@H](Cc1ccc(-c2ccc(NC(=O)c3ccccc3)cc2)cc1)C(=O)O; Bip(4'-NH) = O=C([C@H](Cc1ccc(-c2ccc(N[*:3])cc2)cc1)N[*:1])[*:2]; Indazole3carbonyl(1-CH2COOH) = O=C(O)Cn1nc(C(=O)*)c2ccccc21; Bip(4'-NHAc) = CC(=O)Nc1ccc(-c2ccc(C[C@H](N)C(=O)O)cc2)cc1; X33 = N=C(NCCC[C@@H](N[*:1])C(=O)[*:2])NCc1cccc(CC(=O)O)c1; X53 = CC(C)(C)n1nnc(CNC(=N)NCCC[C@@H](N[*:1])C(=O)[*:2])n1; X80 = N=C(NCCC[C@@H](N[*:1])C(=O)[*:2])NCc1ccc2c(c1)OCO2; X26 = N=C(NCCC[C@@H](N[*:1])C(=O)[*:2])NCc1ccc(O)cc1; Ala(morpholin-4-yl) = N[C@@H](CN1CCOCC1)C(=O)O; Benzoyl(3-OCH2COOH) = O=C(O)COc1cccc(C(=O)*)c1; Bip = N[C@@H](Cc1ccc(-c2ccccc2)cc1)C(=O)O; Tiq1c(1S) = O=C(O)[C@H]1NCCc2ccccc21; Val(3-OH) = CC(C)(O)[C@H](N)C(=O)O; 2Pal = N[C@@H](Cc1ccccn1)C(=O)O; Tic = O=C(O)[C@@H]1Cc2ccccc2CN1; Cha = N[C@@H](CC1CCCCC1)C(=O)O; Chg = N[C@H](C(=O)O)C1CCCCC1; Sar = CNCC(=O)O
Biological target: TNFα (Homo sapiens, UniProt P01375)
Sequence (P01375 77-233 limits assumed): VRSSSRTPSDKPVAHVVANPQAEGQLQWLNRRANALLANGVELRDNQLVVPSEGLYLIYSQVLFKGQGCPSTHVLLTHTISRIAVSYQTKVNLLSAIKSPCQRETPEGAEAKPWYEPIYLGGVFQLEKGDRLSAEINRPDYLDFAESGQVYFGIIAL
Experiment: TNF-Induced HEK-Blue Assay
Type: cell-based
[1] = HEK-Blue-CD40L cells, NF-kB-driven secreted alkaline phosphatase reporter, TNFα 0.5 ng/ml, 18 h, read-out: TNF induced HEK-Blue assay IC50 value

CC(C)C[C@@H]1NC(=O)[C@H](CCCNC(=N)N)NC(=O)[C@H](C(C)C)NC(=O)[C@@H]2CCCN2C(=O)[C@H](C(C)C)NC(=O)[C@@H](CCCNC(=N)NCc2ccc(O)cc2)NC(=O)[C@H](CC(=O)O)NC(=O)[C@@H]2CCCN2C(=O)CN(C)C(=O)[C@H](Cc2ccc(-c3ccc(NC(=O)c4nn(CC(=O)O)c5ccccc45)cc3)cc2)NC(=O)[C@H](Cc2ccc(-c3ccccc3)cc2)NC(=O)[C@H](CN2CCOCC2)NC(=O)CSC[C@@H](C(=O)NCC(N)=O)NC1=O [Example 508] ({CH2CO}-[Ala(morpholin-4-yl)][Bip][Bip(4'-NH)](Indazole3carbonyl(1-CH2COOH))[Sar]PD[X26]VPVRLCG-NH2; thioether N-13)
pIC50: > 7.30

CC(C)C[C@@H]1NC(=O)[C@H](CCCNC(=N)N)NC(=O)[C@H](C(C)C)NC(=O)[C@@H]2CCCN2C(=O)[C@H](C(C)C)NC(=O)[C@@H](CCCNC(=N)NCc2ccc3c(c2)OCO3)NC(=O)[C@H](CC(=O)O)NC(=O)[C@@H]2CCCN2C(=O)CN(C)C(=O)[C@H](Cc2ccc(-c3ccc(NC(=O)c4nn(CC(=O)O)c5ccccc45)cc3)cc2)NC(=O)[C@H](Cc2ccc(-c3ccccc3)cc2)NC(=O)[C@H](CN2CCOCC2)NC(=O)CSC[C@@H](C(=O)NCC(N)=O)NC1=O [Example 509] ({CH2CO}-[Ala(morpholin-4-yl)][Bip][Bip(4'-NH)](Indazole3carbonyl(1-CH2COOH))[Sar]PD[X80]VPVRLCG-NH2; thioether N-13)
pIC50: > 7.30

CC(C)C[C@@H]1NC(=O)[C@H](CCCNC(=N)N)NC(=O)[C@H](C(C)C)NC(=O)[C@@H]2CCCN2C(=O)[C@H](C(C)C)NC(=O)[C@@H](CCCNC(=N)NCc2nnn(C(C)(C)C)n2)NC(=O)[C@H](CC(=O)O)NC(=O)[C@@H]2CCCN2C(=O)CN(C)C(=O)[C@H](Cc2ccc(-c3ccc(NC(=O)c4nn(CC(=O)O)c5ccccc45)cc3)cc2)NC(=O)[C@H](Cc2ccc(-c3ccccc3)cc2)NC(=O)[C@H](CN2CCOCC2)NC(=O)CSC[C@@H](C(=O)NCC(N)=O)NC1=O [Example 510] ({CH2CO}-[Ala(morpholin-4-yl)][Bip][Bip(4'-NH)](Indazole3carbonyl(1-CH2COOH))[Sar]PD[X53]VPVRLCG-NH2; thioether N-13)
pIC50: > 7.30

CC(C)C[C@@H]1NC(=O)[C@H](CCCNC(=N)N)NC(=O)[C@H](C(C)C)NC(=O)[C@@H]2CCCN2C(=O)[C@H](C(C)C)NC(=O)[C@@H](CCCNC(=N)NCc2cccc(CC(=O)O)c2)NC(=O)[C@H](CC(=O)O)NC(=O)[C@@H]2CCCN2C(=O)CN(C)C(=O)[C@H](Cc2ccc(-c3ccc(NC(=O)c4nn(CC(=O)O)c5ccccc45)cc3)cc2)NC(=O)[C@H](Cc2ccc(-c3ccccc3)cc2)NC(=O)[C@H](CN2CCOCC2)NC(=O)CSC[C@@H](C(=O)NCC(N)=O)NC1=O [Example 511] ({CH2CO}-[Ala(morpholin-4-yl)][Bip][Bip(4'-NH)](Indazole3carbonyl(1-CH2COOH))[Sar]PD[X33]VPVRLCG-NH2; thioether N-13)
pIC50: 6.70 to 7.30

CC(C)C[C@@H]1NC(=O)[C@H](CCCNC(=N)N)NC(=O)[C@H](C(C)C)NC(=O)[C@@H]2CCCN2C(=O)[C@H](C(C)C)NC(=O)[C@@H](CCCNC(=N)NCc2cccc(CNC(=N)N)c2)NC(=O)[C@H](CC(=O)O)NC(=O)[C@@H]2CCCN2C(=O)CN(C)C(=O)[C@H](Cc2ccc(-c3ccc(NC(=O)c4nn(CC(=O)O)c5ccccc45)cc3)cc2)NC(=O)[C@H](Cc2ccc(-c3ccccc3)cc2)NC(=O)[C@H](CN2CCOCC2)NC(=O)CSC[C@@H](C(=O)NCC(N)=O)NC1=O [Example 512] ({CH2CO}-[Ala(morpholin-4-yl)][Bip][Bip(4'-NH)](Indazole3carbonyl(1-CH2COOH))[Sar]PD[dArg(Nω-CH2C6H4-3-CH2Gua)]VPVRLCG-NH2; thioether N-13)
pIC50: > 7.30

CC(C)C[C@@H]1NC(=O)[C@H](Cc2c[nH]cn2)NC(=O)[C@H](C2CCCCC2)NC(=O)[C@@H]2CCCN2C(=O)[C@H](C(C)C)NC(=O)[C@@H](CCCNC(=N)N)NC(=O)[C@H](CC(=O)O)NC(=O)[C@H](Cc2cnc[nH]2)NC(=O)CN(C)C(=O)[C@H](Cc2ccc(-c3ccc(NC(=O)c4ccccc4)cc3)cc2)NC(=O)[C@H](Cc2ccc(-c3ccccc3)cc2)NC(=O)[C@H](CC2CCCCC2)NC(=O)CSC[C@@H](C(=O)NCC(N)=O)NC1=O [Example 513] ({CH2CO}-[Cha][Bip][Bip(4'-NHBz)][Sar]HD[dR]VP[Chg]HLCG-NH2; thioether N-13)
pIC50: > 7.30

CC(C)C[C@@H]1NC(=O)[C@H](Cc2c[nH]cn2)NC(=O)[C@H](C2CCCCC2)NC(=O)[C@@H]2CCCN2C(=O)[C@H](C(C)C)NC(=O)[C@@H](CCCNC(=N)N)NC(=O)[C@H](CC(=O)O)NC(=O)[C@H](Cc2cnc[nH]2)NC(=O)CN(C)C(=O)[C@H](Cc2ccc(-c3ccc(NC(=O)c4cccc(C(=O)O)c4)cc3)cc2)NC(=O)[C@H](Cc2ccc(-c3ccccc3)cc2)NC(=O)[C@H](CC2CCCCC2)NC(=O)CSC[C@@H](C(=O)NCC(N)=O)NC1=O [Example 514] ({CH2CO}-[Cha][Bip][Bip(4'-(3-HOOC-benzamido))][Sar]HD[dR]VP[Chg]HLCG-NH2; thioether N-13)
pIC50 [1]: > 7.30

CC[C@H](C)[C@@H]1NC(=O)[C@@H](CCCNC(=N)N)NC(=O)[C@H](CC(=O)O)NC(=O)[C@H](Cc2cnc[nH]2)NC(=O)CN(C)C(=O)[C@H](Cc2ccc(-c3ccc(NC(=O)c4cccc(OCC(=O)O)c4)cc3)cc2)NC(=O)[C@H](Cc2ccc(-c3ccccc3)cc2)NC(=O)[C@H](CC2CCCCC2)NC(=O)CSC[C@@H](C(=O)NCC(N)=O)NC(=O)[C@H](CC(C)C)NC(=O)[C@H](Cc2c[nH]cn2)NC(=O)[C@H](C(C)C)NC(=O)[C@@H]2Cc3ccccc3CN2C1=O [Example 515] ({CH2CO}-[Cha][Bip][Bip(4'-NH)](Benzoyl(3-OCH2COOH))[Sar]HD[dR]I[Tic]VHLCG-NH2; thioether N-13)
pIC50 [1]: > 7.30

CC[C@H](C)[C@@H]1NC(=O)[C@@H](CCCNC(=N)N)NC(=O)[C@H](CC(=O)O)NC(=O)[C@H](Cc2cnc[nH]2)NC(=O)CN(C)C(=O)[C@H](Cc2ccc(-c3ccc(NC(=O)c4cccc(OCC(=O)O)c4)cc3)cc2)NC(=O)[C@H](Cc2ccc(-c3ccccc3)cc2)NC(=O)[C@H](CC2CCCCC2)NC(=O)CSC[C@@H](C(=O)NCC(N)=O)NC(=O)[C@H](CC(C)C)NC(=O)[C@H](Cc2c[nH]cn2)NC(=O)[C@H](C(C)C)NC(=O)[C@@H]2c3ccccc3CCN2C1=O [Example 516] ({CH2CO}-[Cha][Bip][Bip(4'-NH)](Benzoyl(3-OCH2COOH))[Sar]HD[dR]I[Tiq1c(1S)]VHLCG-NH2; thioether N-13)
pIC50 [1]: > 7.30

CC(=O)Nc1ccc(-c2ccc(C[C@@H]3NC(=O)[C@H](Cc4ccc(-c5ccccc5)cc4)NC(=O)[C@H](C(C)(C)O)NC(=O)CSC[C@@H](C(=O)NCC(N)=O)NC(=O)[C@H](CC(C)C)NC(=O)[C@H](Cc4cnc[nH]4)NC(=O)[C@H](C(C)C)NC(=O)[C@@H]4CCCN4C(=O)[C@H](C(C)C)NC(=O)[C@@H](CCCNC(=N)N)NC(=O)[C@H](CC(=O)O)NC(=O)[C@H](Cc4ccccn4)NC(=O)CN(C)C3=O)cc2)cc1 [Example 518] ({CH2CO}-[Val(3-OH)][Bip][Bip(4'-NHAc)][Sar][2Pal]D[dR]VPVHLCG-NH2; thioether N-13)
pIC50 [1]: 6.70 to 7.30
